The values that follow come from patent publication US8597904B2, “Pharmaceutical compositions for the treatment of conditions responsive to proteasome inhibition” (priority 2007, dated 2013).

For assay [1], the system named is microtubule-associated protein 1 light chain 3 (LC3). In words: immunoblot of LC3 conversion (autophagy) in SK-N-SH cells. It is filed as cell-based, human. The conditions noted are these: compared to untreated control cells. As for the experimental part:
To verify whether autophagy is induced in GlbA-treated cells, levels of microtubule-associated protein 1 light chain 3 (LC3), a reliable marker of autophagosomes, were measured. […] Therefore, this characteristic conversion of LC3 can be used to monitor autophagic activity. SK-N-SH cells were treated with GlbA in the presence or absence of 3-MA, and cell lysates were probed with LC3.
On the technique in general: Immunoblotting shows a protein as a band on a membrane.

Assay [2] has as its system poly (ADP-ribose) polymerase (PARP). In words: Western blot of PARP cleavage in SK-N-SH cells. It is filed as cell-based, human. The note with it: Example 15, single agent. As for the experimental part: The induction of an apoptotic response in cancer cells by the addition of syringolin A was verified by monitoring the cleavage of poly (ADP-ribose) polymerase (PARP), a common response during apoptosis. SK-N-SH cells were cultured in the presence or absence of 20 μM syringolin A for 0, 24 and 48 hours, and cell lysates were then generated as described in Example 4 and probed for the presence of PARP by Western blotting using rabbit polyclonal anti-PARP (#9542) (diluted 1:1000) and the HRP-linked anti-rabbit secondary antibody described in Example 4. The results were representative of four independent experiments. […] The treatment of cells for 48 hours further increased the levels of cleaved PARP, whereas noncleaved PARP disappeared. In a similar manner, syringolin A induced PARP cleavage in SKOV3 cells, but noncleaved PARP was still detected 48 hours after treatment (FIG. 5B).
The role of glidobactin A (GlbA) in apoptosis and its correlation with autophagy has not previously been examined. Therefore, in a series of experiments, cell lysates of SK-N-SH cells were treated with GlbA in the presence and absence of the autophagy inhibitor 3-methyladenine (3-MA) and probed for poly ADP-ribose polymerase (PARP). The cleavage of PARP produces a smaller 89 kDa fragment which is indicative of late apoptosis.

In the next assay the test system is SK-N-SH cells. Briefly: Cytox-Glo cytotoxicity assay. It counts as cell-based, human. The conditions noted are these: light microscope, 48 hours. As for the experimental part: Determination of potential cytotoxic effects by GlbA and/or […] was carried out by using the Cytox-Glo cytotoxicity assay, which measures “dead cell proteases” from cells that have lost membrane integrity. Briefly, cells were treated with a single concentration of compound for 48 hours in a final volume of 100 μl, after which 50 μl of AAF-Glo luminogenic peptide substrate (alanyl-alanyl-phenylalanyl-aminoluciferin) was added to each well and incubated for 15 min at room temperature. The luminescence was measured by a Dynex MLX luminometer to give a reading of cells with damaged membranes. Next, 50 μl of digitonin was added to each well and the samples incubated for 15 minutes at room temperature. Luminescence was measured a second time to determine total cell number. Controls included cells with vehicle only, media, and media with compound.
SK-N-SH cells were treated with 0.25 μM GlbA or 25 μM SylA and SKOV3 cells were treated with 1.0 μM GlbA or 25 μM SylA. As illustrated in FIGS. 16A and 16B, control cells (treated with DMSO and H2O representing GlbA and SylA controls, respectively) were viable and no cytotoxicity was detected.
To determine if autophagy plays a role in GlbA/SylA-induced cell death, levels of cytotoxicity in cells pre-treated with 3-methyladenine (3-MA), an established autophagy inhibitor, were measured using the assay described in Example 12.

A further assay deals with T1, Papaya latex papain (Carica papaya, UniProt P00784).
T1 construct: Papaya latex papain (Sigma-Aldrich); purchased Sigma-Aldrich; host or cells: papaya latex
T1 sequence (P00784 134-345): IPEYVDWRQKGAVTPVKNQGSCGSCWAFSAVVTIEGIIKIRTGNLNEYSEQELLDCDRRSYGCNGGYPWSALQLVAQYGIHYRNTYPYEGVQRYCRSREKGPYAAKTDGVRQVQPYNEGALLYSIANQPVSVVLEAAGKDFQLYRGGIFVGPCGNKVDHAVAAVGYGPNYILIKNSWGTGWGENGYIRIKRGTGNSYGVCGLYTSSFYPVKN
In words: SensoLyte Green Protease Fluorometric Assay, papain inhibition. It counts as biochemical. The note with it: syringolin A up to 500 μM. As for the experimental part:
(§1) To test the specificity of syringolin A inhibition of proteasome activities, bovine pancreas trypsin (Pierce) and Papaya latex papain (Sigma-Aldrich) inhibition assays with syringolin A were performed with the SensoLyte™ Green Protease Fluorometric Assay Kit (AnaSpec., San Jose, Calif., USA) according to the instructions of the manufacturer. Reaction volumes of 100 μl contained an enzyme concentration of 200 ng/ml and various amounts of test inhibitors. Protease activity was monitored at 33° C. in a FluoroCount Microplate Fluorometer (FluoroCount, Packard, Canberra, Australia) using 485 nm excitation and a 550 nm emission filters.

The target in assay [3] is T2, human erythrocyte 20S proteasomes, chymotrypsin-like activity (Homo sapiens, UniProt P28074).
T2 construct: which contains human erythrocyte 20S proteasomes; purchased BIOMOL International AK-740; host or cells: human erythrocytes
It counts as biochemical. As to the method:
A 100 μl reaction volume contained 2 μg/ml 20S proteasome, 100 μM substrate, and the desired concentrations of syringolin A in dilution buffer (50 mM Tris-HCl, pH 7.5, 25 mM KCl, 10 mM NaCl, 1 mM MgCl2). Epoximicin and MG132 (BIOMOL® International) were used as test inhibitors. The release of free AMC (7-amino-4-methylcoumarin) at 37° C. was monitored with an MWGt Sirius HT fluorescence microplate reader (BIO-TEK® Instruments) equipped with a 360 nm excitation and a 460 nm emission filter. Proteolytic activities were measured as the increase in relative fluorescence units (RFU) over time (FIG. 7A-C). […] The initial velocities (vi) were determined from the time derivative of these curves and plotted versus the corresponding inhibitor concentration ([I]). […] Using SigmaPlot, the data were fitted to the hyperbolic equation vi=c+[v0/(Ki′+[I])], where v0 is the velocity of the control. […] The rate of covalent inhibition (kassociation), which equals kobs/[I] was calculated over the range of inhibitor concentrations given in parentheses in FIG. 7D. Values in FIG. 7D represent means±standard deviation.
The fluorogenic substrates Suc-LLVY-AMC, Boc-LRR-AMC, and Z-LLE-AMC (BIOMOL® International) were used to monitor chymotrypsin-like, trypsin-like, and caspase-like activities, respectively. […] The release of free AMC (7-amino-4-methylcoumarin) at 37° C. was monitored with an MWGt Sirius HT fluorescence microplate reader (BIO-TEK® Instruments) equipped with a 360 nm excitation and a 460 nm emission filter.

For the next assay, the target named is T3, bovine pancreas trypsin (Bos taurus, UniProt P00760).
T3 construct: bovine pancreas trypsin (Pierce); purchased Pierce; host or cells: bovine pancreas
T3 sequence (P00760 24-246): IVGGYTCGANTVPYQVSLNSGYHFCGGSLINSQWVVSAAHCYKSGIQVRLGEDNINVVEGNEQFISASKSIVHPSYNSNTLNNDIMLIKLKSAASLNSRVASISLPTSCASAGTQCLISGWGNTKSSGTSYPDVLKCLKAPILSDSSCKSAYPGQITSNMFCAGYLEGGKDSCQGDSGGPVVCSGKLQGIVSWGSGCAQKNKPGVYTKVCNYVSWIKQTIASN
Briefly: SensoLyte Green Protease Fluorometric Assay, trypsin inhibition. The note with it: syringolin A up to 500 μM. It counts as biochemical. As to the method:
as §1

Assay [4] has as its target T4, proteasome activity in SK-N-SH neuroblastoma cells (Homo sapiens, UniProt P28074).
T4 construct: endogenous in cells; host or cells: SK-N-SH
T4 sequence (P28074 60-263): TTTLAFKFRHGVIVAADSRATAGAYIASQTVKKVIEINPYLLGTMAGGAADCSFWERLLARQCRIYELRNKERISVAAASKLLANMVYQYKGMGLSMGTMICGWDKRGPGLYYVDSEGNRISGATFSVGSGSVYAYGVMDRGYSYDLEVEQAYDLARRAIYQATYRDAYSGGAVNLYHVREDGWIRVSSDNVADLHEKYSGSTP
Briefly: Proteasome-Glo cell-based luminescent assay. The note with it: 2 hours incubation. As to the method: Syringolin A was tested as a proteasome inhibitor in vivo in cultured mammalian cancer cells. Inhibition of proteasome activity in human SK-N-SH neuroblastoma cells was measured using the Proteasome-Glo™ cell-based luminescent assay (Promega) in solid white 96-well microtiter cell culture plates. Ten μl of syringolin A (at various concentrations) was added to each well containing SK-N-SH cells (plated at a concentration of 1.0×10^5 cells/ml in 90 μl well volumes 24 hours prior) and a negative control and media only control were included. Cells were incubated with 1-100 μM syringolin A for 2 hours or 24 hours, and then equilibrated to room temperature for 15 minutes before 100 μl of Proteasome-Glo reagent (containing bioluminescent substrate Suc-LLVY-aminoluciferin) was added to the cells. Luminescence (indicated as relative luminescence units [RLU]) was read after 15-30 minutes on a Dynex MLX Luminometer.
To trace the kinetics of proteasome inhibition in the presence of syringolin, the same experiment was performed, but in this case, 100 μl of Proteasome-Glo reagent was added to cells first, followed by the addition of syringolin A at various concentrations, and the proteasome activity was measured over time.
The cell culture-based proteasome inhibition assay was performed as previously described (Groll et al. 2008. Nature 452:755-758, which is incorporated herein by reference in its entirety). Briefly, wells of white-walled 96-well microtiter cell culture plates were seeded at a density of 1×10^4 cells/well (SK-N-SH) or 5×10^3 cells/well (SKOV3) in 90 μl. After 24 hours, 10 μl GlbA or SylA were added at increasing concentrations (0-100 μM) and incubated for 2 hours. […] Cell Death Differ 9:1017-1025; Meng, et al. 1999. PNAS 96:10403-10408, each of which is incorporated herein by reference in its entirety) were used as positive and negative controls, respectively. Microtiter plates were then equilibrated to room temperature for 15 min before adding 100 μl of proteasome Glo™ reagent (containing bioluminescent substrate Suc-LLVY-aminoluciferin) per well. Luminescence was measured on a Dynex MLX luminometer, according to the manufacturer's instructions (Promega).

Residues, ends and D or L forms follow the SMILES beside them. *: point of attachment. Cbz = O=C(OCc1ccccc1)*

As for `Cn1cnc(N)c2ncnc1-2` [3-MA, 3-methyladenine, reference compound], the “LC3-II amount / conversion of LC3” value in assay [1] is “did not alter the conversion of LC3”. Further, the PARP cleavage entry in assay [2] is “had no effect on PARP cleavage”. Moreover, the “cell proliferation and killing, 3-MA control cells” value in the assay with SK-N-SH cells is “suppresses SK-N-SH cell proliferation without killing cells”.

Regarding `CC(C)C[C@@H](C=O)NC(=O)[C@H](CC(C)C)NC(=O)[C@H](CC(C)C)NC(=O)OCc1ccccc1` [MG-132, reference compound] (Cbz-Leu-Leu-Leu-aldehyde), the papain activity result on Papaya latex papain was “also inhibits cysteine proteases”. For the same molecule, the “mode of proteasome inhibition (reaction velocity over time)” value in assay [3] is listed as “reversible”. Besides, at bovine pancreas trypsin, the trypsin activity result is recorded as “trypsin inhibitor”.

For `C/C=C/C/C=C/CCC(=O)[C@H]1O[C@H]1C(N)=O` [cerulenin, reference compound], the “proteasome activity in cells” value in assay [4] is given as “does not significantly inhibit proteasome activity”.

Consider glidobactin A, for which the proteasome chymotrypsin-like activity result in assay [3] (500-fold dilution of 10× concentrated HPLC peak) is given as “reduced proteasome activity to background levels”.
